Laboratory results as given in article PMC3684073 (Journal of agricultural and food chemistry, 2008).
pEC50, pIC50: −log10 of the molar value. Read-outs that look alike come from different tables or passages of the source.

What was measured:
[1] = target: T1, 5-HT7 receptor (Homo sapiens, UniProt P34969); assay: 5-HT7 receptor competitive binding assay; conditions: for 5-HT7 competitive binding % Inhibition ± SD: tested at 50 μM, NA = not active
[2] = target: 5-HT6 (Homo sapiens, UniProt P50406); assay: MDS Pharma serotonin receptor binding, 5-HT6
[3] = target: T2, 5-HT3 (Homo sapiens, UniProt P46098); assay: MDS Pharma serotonin receptor binding, 5-HT3
T2 sequence (P46098 24-478): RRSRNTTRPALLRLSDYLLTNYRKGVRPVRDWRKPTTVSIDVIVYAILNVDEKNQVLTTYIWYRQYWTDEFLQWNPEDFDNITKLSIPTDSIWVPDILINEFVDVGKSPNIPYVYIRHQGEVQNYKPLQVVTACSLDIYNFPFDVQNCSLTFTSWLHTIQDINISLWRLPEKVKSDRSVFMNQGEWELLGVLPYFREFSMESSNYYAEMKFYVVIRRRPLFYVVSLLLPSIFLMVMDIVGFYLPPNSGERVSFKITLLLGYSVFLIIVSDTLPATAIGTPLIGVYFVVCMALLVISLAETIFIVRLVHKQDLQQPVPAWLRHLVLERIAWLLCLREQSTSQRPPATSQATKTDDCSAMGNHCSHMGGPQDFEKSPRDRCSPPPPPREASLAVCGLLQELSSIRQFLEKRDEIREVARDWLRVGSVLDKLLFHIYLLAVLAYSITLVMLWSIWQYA

[4] = target: 5-HT2B (Homo sapiens, UniProt P41595); assay: MDS Pharma serotonin receptor binding, 5-HT2B
[5] = target: 5-HT4 (Cavia porcellus, UniProt O70528); assay: MDS Pharma serotonin receptor binding, 5-HT4
[6] = target: human serotonin transporter (hSERT) (Homo sapiens, UniProt P31645); assay: cell-based
[7] = target: T1, 5-HT7 receptor; assay: Intracellular cAMP assay in 5-HT7-transfected HEK293 cells; assay type: cell-based
[8] = target: 5-HT1B (Rattus norvegicus, UniProt P28564); assay: MDS Pharma serotonin receptor binding, 5-HT1B
[9] = target: 5-HT5A (Homo sapiens, UniProt P47898); assay: MDS Pharma serotonin receptor binding, 5-HT5A
[10] = target: T3, 5-HT1A (Homo sapiens, UniProt P08908); assay: MDS Pharma serotonin receptor binding, 5-HT1A
T3 sequence (P08908 1-422): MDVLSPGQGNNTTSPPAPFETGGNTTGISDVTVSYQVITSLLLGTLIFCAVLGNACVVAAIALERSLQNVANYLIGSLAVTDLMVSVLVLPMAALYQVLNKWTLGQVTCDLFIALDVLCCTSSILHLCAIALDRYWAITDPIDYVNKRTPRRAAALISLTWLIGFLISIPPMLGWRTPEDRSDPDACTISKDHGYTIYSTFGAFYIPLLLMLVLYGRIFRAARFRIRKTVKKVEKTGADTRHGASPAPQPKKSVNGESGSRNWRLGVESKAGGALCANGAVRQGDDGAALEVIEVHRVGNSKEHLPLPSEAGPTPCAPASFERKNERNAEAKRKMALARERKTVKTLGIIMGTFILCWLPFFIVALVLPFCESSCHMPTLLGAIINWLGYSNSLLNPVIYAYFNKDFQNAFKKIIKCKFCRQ

[11] = target: T4, 5-HT2C (Homo sapiens, UniProt P28335); assay: MDS Pharma serotonin receptor binding, 5-HT2C
T4 sequence (P28335 33-458): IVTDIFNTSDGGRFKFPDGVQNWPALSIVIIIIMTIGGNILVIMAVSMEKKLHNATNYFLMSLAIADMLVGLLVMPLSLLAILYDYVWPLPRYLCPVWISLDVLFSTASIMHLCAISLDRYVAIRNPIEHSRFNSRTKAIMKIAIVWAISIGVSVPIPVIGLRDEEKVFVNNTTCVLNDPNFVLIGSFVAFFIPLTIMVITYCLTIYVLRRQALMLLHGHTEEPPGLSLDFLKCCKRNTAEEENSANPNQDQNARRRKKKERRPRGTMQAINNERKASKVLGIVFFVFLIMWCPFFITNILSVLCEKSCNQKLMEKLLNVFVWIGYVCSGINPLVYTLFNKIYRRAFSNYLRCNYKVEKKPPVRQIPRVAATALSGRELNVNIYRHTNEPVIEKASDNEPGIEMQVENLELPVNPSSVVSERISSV

[12] = read-out: 5-HT7 receptor binding IC50, pure compounds

Question: For 23-O-acetylshengmanol-3-β-D-xyloside, which “5-HT7 competitive binding % Inhibition ± SD” value [1] is on record?
Answer: Its value is 35 ± 10%.

Question: Which “5-HT7 competitive binding % Inhibition ± SD” value [1] does the source give for 25-anhydrocimigenol-3-O- β-xyloside here?
Answer: The value was 31 ± 8%.

Question: CC(=O)O[C@@H]1C[C@@]23C[C@@]24CC[C@H](O[C@@H]2OC[C@@H](O)[C@H](O)[C@H]2O)C(C)(C)[C@@H]4CC[C@H]3[C@]2(C)C[C@@H]3O[C@@]4(C[C@@H](C)[C@@H]3[C@@]12C)OC[C@@]1(C)O[C@@H]41 [23-epi-26-deoxyactein] was tested. Which pIC50 [1, 12] did it give?
Answer: The pIC50 was no more than 4.00.

Question: How did the pIC50 [1, 12] turn out when CC(=O)O[C@@H]1C[C@@]23C[C@@]24CC[C@H](O[C@@H]2OC[C@@H](O)[C@H](O)[C@H]2O)C(C)(C)[C@@H]4CC[C@H]3[C@]2(C)C[C@@H]3O[C@]4(C[C@@H](C)[C@@H]3[C@@]12C)OC[C@@]1(C)O[C@@H]41 [26-deoxyactein] was run?
Answer: The pIC50 was no more than 4.00.

Question: And the “5-HT7 competitive binding % Inhibition ± SD” value [1]?
Answer: Its value is 38 ± 4%.

Question: With COc1cc(/C=C/C(=O)O[C@H](C(=O)O)[C@](O)(Cc2ccc(O)c(O)c2)C(=O)O)ccc1O [Cimicifugic acid A, cimicifugic acid A] as the compound, how does the pIC50 [1] read?
Answer: The pIC50 was less than 3.30.

Question: With COc1ccc(/C=C/C(=O)O[C@H](C(=O)O)[C@](O)(Cc2ccc(O)c(O)c2)C(=O)O)cc1O [Cimicifugic acid B, cimicifugic acid B] as the compound, how does the pIC50 [1] read?
Answer: The pIC50 was less than 3.30.

Question: COc1cc(/C=C/C(=O)O[C@H](C(=O)O)[C@](O)(Cc2ccc(O)cc2)C(=O)O)ccc1O [Cimicifugic acid E, cimicifugic acid E] was tested. Which pIC50 [1] did it give?
Answer: Its pIC50 is less than 3.30.

Question: How did the pIC50 [1] turn out when COc1ccc(/C=C/C(=O)O[C@H](C(=O)O)[C@](O)(Cc2ccc(O)cc2)C(=O)O)cc1O [Cimicifugic acid F, cimicifugic acid F] was run?
Answer: Its pIC50 is less than 3.30.

Question: For CC(=O)O[C@@H]1C[C@@]23C[C@@]24CC[C@H](O[C@@H]2OC[C@H](O)[C@H](O)[C@H]2O)C(C)(C)[C@@H]4CC[C@H]3[C@]2(C)C[C@@H]3O[C@]4(C[C@@H](C)[C@@H]3[C@@]12C)OC[C@]1(C)O[C@H]41 [Cimiracemoside N], which “5-HT7 competitive binding % Inhibition ± SD” value [1] is on record?
Answer: Its value is 18 ± 4%.

Question: Which “5-HT7 competitive binding % Inhibition ± SD” value [1] does the source give for CC(=O)O[C@@H]1CO[C@@H](O[C@H]2CC[C@]34C[C@]35C[C@@H](OC(C)=O)[C@]3(C)[C@H]6[C@H](C)C[C@]7(OC(O)[C@]8(C)O[C@H]78)O[C@H]6C[C@@]3(C)[C@@H]5CC[C@H]4C2(C)C)[C@H](O)[C@H]1O (stereo partly drawn) [Cimiracemoside O] here?
Answer: Its value is 19 ± 5%.

Question: With CNCCc1c[nH]c2ccc(O)cc12 [Nω-methylserotonin, 3-(2-Methylaminoethyl)indol-5-ol] as the compound, how does the pIC50 [2] read?
Answer: Its pIC50 is 7.26.

Question: And the pIC50 [3]?
Answer: The pIC50 was 5.78.

Question: What about the pIC50 [4] of the same compound?
Answer: The pIC50 was 7.01.

Question: What about the pIC50 [5] of the same compound?
Answer: Its pIC50 is 5.17.

Question: What about the pIC50 [6] of the same compound?
Answer: Its pIC50 is 6.31.

Question: What about the pEC50 [7] of the same compound?
Answer: The pEC50 was 7.66.

Question: And the “maximum cAMP induction” value ([7]; at 100 nM, the highest tested concentration)?
Answer: The value was 43 pmol/mL.

Question: And the pIC50 [8]?
Answer: Its pIC50 is 7.82.

Question: What about the pIC50 [9] of the same compound?
Answer: The pIC50 was 6.54.

Question: What about the pIC50 ([1]; 5-HT7 receptor binding IC50) of the same compound?
Answer: Its pIC50 is 10.64.

Question: What about the pIC50 ([1]; IC50, 5-HT7, triplicate in three independent experiments) of the same compound?
Answer: The pIC50 was 10.70.

Question: What about the pIC50 [10] of the same compound?
Answer: Its pIC50 is 8.70.

Question: And the pIC50 [11]?
Answer: Its pIC50 is 7.00.

Question: With O=C(/C=C/c1ccc(O)c(O)c1)O[C@H](C(=O)O)[C@](O)(Cc1ccc(O)c(O)c1)C(=O)O [fukinolic acid] as the compound, how does the pIC50 [1] read?
Answer: The pIC50 was 4.00.

Question: How did the pIC50 [1, 12] turn out when Actein (R,S) was run?
Answer: Its pIC50 is no more than 4.00.
